Laboratory results published in ChEMBL document CHEMBL4138123, “Design, synthesis and biological evaluation of novel pyrazolochalcones as potential modulators of PI3K/Akt/mTOR pathway and inducers of apoptosis in breast cancer cells” (Eur J Med Chem, 2017).

How the values were obtained:
Format in all cases: functional
[1] = tested on: HCT-15; assay: Cytotoxicity against human HCT15 cells assessed as cell growth at 10 uM after 48 hrs by sulforhodamine B assay relative to control; details: HCT-15, 48 h, read-out: Activity
[2] = tested on: NCI-H460; assay: Cytotoxicity against human NCI-H460 cells assessed as growth inhibition after 48 hrs by sulforhodamine B assay; details: NCI-H460, 48 h
[3] = tested on: OVCAR-4; assay: Cytotoxicity against human OVCAR4 cells assessed as growth inhibition after 48 hrs by sulforhodamine B assay; details: OVCAR-4, 48 h
[4] = tested on: RXF 393; assay: Cytotoxicity against human RXF393 cells assessed as growth inhibition after 48 hrs by sulforhodamine B assay; details: RXF 393, 48 h
[5] = tested on: OVCAR-3; assay: Cytotoxicity against human OVCAR3 cells assessed as cell growth at 10 uM after 48 hrs by sulforhodamine B assay relative to control; details: OVCAR-3, 48 h, read-out: Activity
[6] = tested on: A549; assay: Cytotoxicity against human A549/ATCC cells assessed as growth inhibition after 48 hrs by sulforhodamine B assay; details: A549, 48 h
[7] = tested on: SN12C; assay: Cytotoxicity against human SN12C cells assessed as cell growth at 0.01 uM after 48 hrs by sulforhodamine B assay relative to control; details: read-out: Activity
[8] = tested on: U-251; assay: Cytotoxicity against human U251 cells assessed as cell growth at 0.01 uM after 48 hrs by sulforhodamine B assay relative to control; details: U-251, 48 h, read-out: Activity
[9] = tested on: 786-0; assay: Cytotoxicity against human 786-0 cells assessed as growth inhibition after 48 hrs by sulforhodamine B assay; details: 786-0, 48 h
[10] = tested on: SF-539; assay: Cytotoxicity against human SF539 cells assessed as cell growth at 0.01 uM after 48 hrs by sulforhodamine B assay relative to control; details: SF-539, 48 h, read-out: Activity
[11] = tested on: 786-0; assay: Cytotoxicity against human 786-0 cells assessed as cell growth at 0.1 uM after 48 hrs by sulforhodamine B assay relative to control; details: 786-0, 48 h, read-out: Activity
[12] = tested on: SW-620; assay: Cytotoxicity against human SW620 cells assessed as cell growth at 1 uM after 48 hrs by sulforhodamine B assay relative to control; details: SW-620, 48 h, read-out: Activity
[13] = tested on: M14; assay: Cytotoxicity against human M14 cells assessed as cell growth at 10 uM after 48 hrs by sulforhodamine B assay relative to control; details: M14, 48 h, read-out: Activity
[14] = tested on: SF-268; assay: Cytotoxicity against human SF268 cells assessed as cell growth at 100 uM after 48 hrs by sulforhodamine B assay relative to control; details: SF-268, 48 h, read-out: Activity
[15] = tested on: RXF 393; assay: Cytotoxicity against human RXF393 cells assessed as cell growth at 0.1 uM after 48 hrs by sulforhodamine B assay relative to control; details: RXF 393, 48 h, read-out: Activity
[16] = tested on: Hs-578T; assay: Cytotoxicity against human Hs 578T cells assessed as cell growth at 10 uM after 48 hrs by sulforhodamine B assay relative to control; details: read-out: Activity
[17] = tested on: U-251; assay: Cytotoxicity against human U251 cells assessed as cell growth at 0.1 uM after 48 hrs by sulforhodamine B assay relative to control; details: U-251, 48 h, read-out: Activity
[18] = tested on: HCT-15; assay: Cytotoxicity against human HCT15 cells assessed as cell growth at 0.01 uM after 48 hrs by sulforhodamine B assay relative to control; details: HCT-15, 48 h, read-out: Activity
[19] = tested on: ACHN; assay: Cytotoxicity against human ACHN cells assessed as cell growth at 0.1 uM after 48 hrs by sulforhodamine B assay relative to control; details: read-out: Activity
[20] = tested on: MDA-MB-468; assay: Cytotoxicity against human MDA-MB-468 cells assessed as cell growth at 0.01 uM after 48 hrs by sulforhodamine B assay relative to control; details: MDA-MB-468, 48 h, read-out: Activity
[21] = tested on: NCI-H522; assay: Cytotoxicity against human NCI-H522 cells assessed as cell growth at 0.1 uM after 48 hrs by sulforhodamine B assay relative to control; details: NCI-H522, 48 h, read-out: Activity
[22] = tested on: HL-60(TB); assay: Cytotoxicity against human HL-60(TB) cells assessed as cell growth at 0.01 uM after 48 hrs by sulforhodamine B assay relative to control; details: HL-60, 48 h, read-out: Activity
[23] = tested on: OVCAR-5; assay: Cytotoxicity against human OVCAR5 cells assessed as cell growth at 10 uM after 48 hrs by sulforhodamine B assay relative to control; details: OVCAR-5, 48 h, read-out: Activity
[24] = tested on: Hs-578T; assay: Cytotoxicity against human Hs 578T cells assessed as cell growth at 100 uM after 48 hrs by sulforhodamine B assay relative to control; details: read-out: Activity
[25] = tested on: HT-29; assay: Cytotoxicity against human HT-29 cells assessed as cell growth at 100 uM after 48 hrs by sulforhodamine B assay relative to control; details: HT-29, 48 h, read-out: Activity
[26] = tested on: NCI-H460; assay: Cytotoxicity against human NCI-H460 cells assessed as cell growth at 10 uM after 48 hrs by sulforhodamine B assay relative to control; details: NCI-H460, 48 h, read-out: Activity
[27] = tested on: M14; assay: Cytotoxicity against human M14 cells assessed as cell growth at 100 uM after 48 hrs by sulforhodamine B assay relative to control; details: M14, 48 h, read-out: Activity
[28] = tested on: A549; assay: Cytotoxicity against human A549/ATCC cells assessed as cell growth at 0.01 uM after 48 hrs by sulforhodamine B assay relative to control; details: A549, 48 h, read-out: Activity
[29] = tested on: DU-145; assay: Cytotoxicity against human DU145 cells assessed as cell growth at 10 uM after 48 hrs by sulforhodamine B assay relative to control; details: DU-145, 48 h, read-out: Activity
[30] = tested on: IGROV-1; assay: Cytotoxicity against human IGROV1 cells assessed as cell growth at 1 uM after 48 hrs by sulforhodamine B assay relative to control; details: IGROV-1, 48 h, read-out: Activity
[31] = tested on: COLO 205; assay: Cytotoxicity against human COLO205 cells assessed as cell growth at 100 uM after 48 hrs by sulforhodamine B assay relative to control; details: COLO 205, 48 h, read-out: Activity
[32] = tested on: CCRF-CEM; assay: Cytotoxicity against human CCRF-CEM cells assessed as cell growth at 100 uM after 48 hrs by sulforhodamine B assay relative to control; details: read-out: Activity
[33] = tested on: NCI-H226; assay: Cytotoxicity against human NCI-H226 cells assessed as cell growth at 1 uM after 48 hrs by sulforhodamine B assay relative to control; details: NCI-H226, 48 h, read-out: Activity
[34] = tested on: NCI-H522; assay: Cytotoxicity against human NCI-H522 cells assessed as cell growth at 1 uM after 48 hrs by sulforhodamine B assay relative to control; details: NCI-H522, 48 h, read-out: Activity
[35] = tested on: SR; assay: Cytotoxicity against human SR cells assessed as growth inhibition after 48 hrs by sulforhodamine B assay; details: for CC50: read-out: LC50 (the source's name)
[36] = tested on: SK-MEL-5; assay: Cytotoxicity against human SK-MEL-5 cells assessed as cell growth at 1 uM after 48 hrs by sulforhodamine B assay relative to control; details: SK-MEL-5, 48 h, read-out: Activity

Compound: COc1cc(C(=O)/C=C/c2cc(-c3ccc4c(c3)OCO4)n[nH]2)cc(OC)c1OC
- growth at 10 µM [1]: -16%
- GI50 [2]: 1.81 µM
- LC50 [2]: 7.84 µM
- TGI [2]: 3.77 µM
- GI50 [3]: 0.88 µM
- LC50 [3]: 20.1 µM
- TGI [3]: 4.24 µM
- GI50 [4]: 1.31 µM
- LC50 (concentration killing 50% of cells) [4]: 6.59 µM
- TGI [4]: 2.94 µM
- growth at 10 µM [5]: -73%
- GI50 [6]: 2.13 µM
- LC50 (concentration giving 50% net cell kill) [6]: 30.1 µM
- TGI [6]: 6.23 µM
- growth at 0.01 µM [7]: 98%
- growth at 0.01 µM [8]: 98%
- GI50 [9]: 1.84 µM
- LC50 [9]: 6.51 µM
- TGI [9]: 3.46 µM
- growth at 0.01 µM [10]: 101%
- growth at 0.1 µM [11]: 98%
- growth at 1 µM [12]: 78%
- growth at 10 µM [13]: -4%
- growth at 100 µM [14]: -89%
- growth at 0.1 µM [15]: 83%
- growth at 10 µM [16]: 10%
- growth at 0.1 µM [17]: 96%
- growth at 0.01 µM [18]: 98%
- growth at 0.1 µM [19]: 103%
- growth at 0.01 µM [20]: 89%
- growth at 0.1 µM [21]: 90%
- growth at 0.01 µM [22]: 99%
- growth at 10 µM [23]: -2%
- growth at 100 µM [24]: -22%
- growth at 100 µM [25]: -45%
- growth at 10 µM [26]: -67%
- growth at 100 µM [27]: -84%
- growth at 0.01 µM [28]: 100%
- growth at 10 µM [29]: -4%
- growth at 1 µM [30]: 83%
- growth at 100 µM [31]: -74%
- growth at 100 µM [32]: -20%
- growth at 1 µM [33]: 70%
- growth at 1 µM [34]: 80%
- GI50 [35]: 1.2 µM
- TGI [35]: 5.63 µM
- CC50 [35]: > 100 µM
- growth at 1 µM [36]: 89%

Compound: COc1cc(-c2cc(/C=C/C(=O)c3ccc4c(c3)OCO4)[nH]n2)cc(OC)c1OC
- growth at 10 µM [1]: -13%
- LC50 [2]: > 100 µM
- TGI [2]: 5.1 µM
- LC50 [3]: > 100 µM
- TGI [3]: > 100 µM
- LC50 (concentration killing 50% of cells) [4]: 5.55 µM
- TGI [4]: 2.87 µM
- growth at 10 µM [5]: 4%
- LC50 (concentration giving 50% net cell kill) [6]: > 100 µM
- TGI [6]: > 100 µM
- growth at 0.01 µM [7]: 97%
- growth at 0.01 µM [8]: 96%
- LC50 [9]: > 100 µM
- TGI [9]: 5.82 µM
- growth at 0.01 µM [10]: 98%
- growth at 0.1 µM [11]: 97%
- growth at 1 µM [12]: 88%
- growth at 10 µM [13]: 15%
- growth at 100 µM [14]: -26%
- growth at 0.1 µM [15]: 89%
- growth at 10 µM [16]: 17%
- growth at 0.1 µM [17]: 95%
- growth at 0.01 µM [18]: 95%
- growth at 0.1 µM [19]: 109%
- growth at 0.01 µM [20]: 90%
- growth at 0.1 µM [21]: 92%
- growth at 0.01 µM [22]: 98%
- growth at 10 µM [23]: 16%
- growth at 100 µM [24]: -2%
- growth at 100 µM [25]: -73%
- growth at 10 µM [26]: -38%
- growth at 100 µM [27]: 22%
- growth at 0.01 µM [28]: 101%
- growth at 10 µM [29]: -2%
- growth at 1 µM [30]: 99%
- growth at 100 µM [31]: -100%
- growth at 100 µM [32]: -13%
- growth at 1 µM [33]: 89%
- growth at 1 µM [34]: 52%
- TGI [35]: > 100 µM
- CC50 [35]: > 100 µM
- growth at 1 µM [36]: 95%
